Non-standard residues stand in square brackets, D forms with d. Primed or numbered codes have the meaning given here. No end group written: not given here. Orn(N3)′ = its azide, alkyne or alkene has reacted where a group follows in round brackets; Orn(N3) = [N-]=[N+]=NCCC[C@H](N)C(=O)O; tri‑GalNAc‑DBCO = not defined here
Columns and labels:
HEPG2 cells = assay: Antiproliferation assay (IncuCyte phase confluence); assay type: cell-based; settings: for cell morphology: 100 nM, live imaging over 5 days following treatment; for antiproliferative phenotype after wash-out: 200 nM on day 0, washed on day 4, followed 6 d
Method: (§1) FIG. 13 Panel A: Synthesis of PIP—GaINAc. Tri-GaINAc-DBCO was conjugated to PIP, a knottin peptide that binds to multiple integrins. Panel B: Degradation of cell surface integrins in HEPG2 cells as determined by live-cell flow cytometry following 44 h of treatment with 100 nM PIP or PIP—GaINAc. Anti-αvβ3, anti-αvβ5 and PIP-Fc fusion construct were used for detection. PIP was genetically fused to the Fc domain of a mouse IgG2a to generate a PIP-Fc fusion construct that measures the surface expression of integrins recognized by PIP. Panel C: Percent proliferation of HEPG2 cells following 44 h of treatment with 50 nM, 100 nM or 200 nM PIP or PIP—GaINAc. Proliferation was quantified by phase confluence over time using IncuCyte. Panel D: Time course of percent proliferation of HEPG2 cells during 44 h of treatment with 200 nM PIP or PIP—GaINAc. Panel E: Percent proliferation of HEPG2 cells for 6 d following wash-out. Cells were treated with 200 nM PIP or PIP—GaINAc on day 0. PIP+ and PIP—GaINAc+ indicate the conditions where cells were washed on day 4 and replaced with fresh medium without treatment. PIP++ and PIP—GaINAc++ indicate the conditions where cells were washed on day 4 and replaced with fresh medium containing 200 nM PIP or PIP—GaINAc. Panel F: Live HEPG2 imaging by IncuCyte throughout the 5 d after treatment with 100 nM PIP or PIP—GaINAc. Images are representative of three independent experiments for F. Data in B-E represent three independent experiments, where B and C show the mean of three independent experiments ±s.e.m. P values were determined by unpaired two-tailed t-tests.
HEPG2 cells (100,000 cells per well in a 24-well plate) were treated with various concentrations of PIP or PIP—GaINAc. After treatments were added, cells were imaged every 4 h for the indicated times in the IncuCyte S3 Live-Cell Analysis system using the phase-imaging channel and a ×10 objective. For co-incubation experiments with ASF, 10 mg ml^−1 of ASF (Sigma-Aldrich) was treated with either PIP or PIP—GaINAc. The following analysis parameters were used to quantify phase confluence (%) in the Incucyte software: segmentation adjustment was set to 1, hole fill (μm2) was set to 300 and area minimum (μm^2) was set to 150. No other constraints were selected. Percent proliferation was then calculated by normalizing phase confluence values. Specifically, at any given timepoint n in the treatment time course (t=0→t=n), the change in confluence from t=0 to t=n (Δconfluence t=n) was calculated for each well as follows: Δconfluence t=n of well x=(confluence t=n of well x)−(confluence t=0 of well x), where x represents any given well in the experiment. This ensures that the value of each well is set to 0 at t=0. The average Δconfluence at the final time point of the untreated wells was set as the ‘max value’ (equivalent to 100% proliferation). Finally, data were normalized as follows:
% proliferationt=n=n of well x=(Δconfluencet=n of well x)/(max value),
where it is noted that while the metric is labeled as “% proliferation”, the effects quantitated are the summation of both cell proliferation and cell survival.

integrin αvβ5 = target: T1, integrin αvβ5 (Homo sapiens, UniProt P06756+P18084); assay: Cell surface integrin levels by live-cell flow cytometry in HEPG2 cells, anti-αvβ5 detection; assay type: cell-based; settings: 44 h, 100 nM
T1 construct: endogenous in cells; host or cells: HEPG2
T1 sequence (P06756 31-889 limits assumed): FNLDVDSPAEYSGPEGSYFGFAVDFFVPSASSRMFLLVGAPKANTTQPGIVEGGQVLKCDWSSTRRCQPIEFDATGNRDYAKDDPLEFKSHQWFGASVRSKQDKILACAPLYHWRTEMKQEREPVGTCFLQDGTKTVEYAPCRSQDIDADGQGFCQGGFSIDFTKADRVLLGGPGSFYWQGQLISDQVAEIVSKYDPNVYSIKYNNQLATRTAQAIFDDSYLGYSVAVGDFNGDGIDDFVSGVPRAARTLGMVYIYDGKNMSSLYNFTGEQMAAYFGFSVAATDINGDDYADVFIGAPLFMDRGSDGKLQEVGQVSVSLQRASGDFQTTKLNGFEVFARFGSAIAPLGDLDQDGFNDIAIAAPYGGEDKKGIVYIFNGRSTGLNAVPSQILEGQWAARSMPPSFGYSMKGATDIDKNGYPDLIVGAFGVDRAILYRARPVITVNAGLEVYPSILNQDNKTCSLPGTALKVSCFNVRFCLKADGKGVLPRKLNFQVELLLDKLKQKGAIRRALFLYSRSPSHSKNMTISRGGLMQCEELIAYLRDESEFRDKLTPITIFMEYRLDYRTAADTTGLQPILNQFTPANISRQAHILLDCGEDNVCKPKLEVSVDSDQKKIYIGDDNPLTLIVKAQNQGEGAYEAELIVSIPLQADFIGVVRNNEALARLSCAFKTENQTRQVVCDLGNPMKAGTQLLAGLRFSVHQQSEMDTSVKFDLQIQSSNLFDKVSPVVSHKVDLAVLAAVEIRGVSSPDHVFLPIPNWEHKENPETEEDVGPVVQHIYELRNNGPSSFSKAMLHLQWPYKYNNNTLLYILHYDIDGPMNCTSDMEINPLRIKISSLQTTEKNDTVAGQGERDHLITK
T1 sequence (P06756 891-1048 partner limits assumed): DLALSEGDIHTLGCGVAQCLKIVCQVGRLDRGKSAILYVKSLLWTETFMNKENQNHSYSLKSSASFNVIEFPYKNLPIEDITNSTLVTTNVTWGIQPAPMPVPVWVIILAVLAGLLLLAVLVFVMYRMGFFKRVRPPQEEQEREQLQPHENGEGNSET
T1 sequence (P18084 24-799): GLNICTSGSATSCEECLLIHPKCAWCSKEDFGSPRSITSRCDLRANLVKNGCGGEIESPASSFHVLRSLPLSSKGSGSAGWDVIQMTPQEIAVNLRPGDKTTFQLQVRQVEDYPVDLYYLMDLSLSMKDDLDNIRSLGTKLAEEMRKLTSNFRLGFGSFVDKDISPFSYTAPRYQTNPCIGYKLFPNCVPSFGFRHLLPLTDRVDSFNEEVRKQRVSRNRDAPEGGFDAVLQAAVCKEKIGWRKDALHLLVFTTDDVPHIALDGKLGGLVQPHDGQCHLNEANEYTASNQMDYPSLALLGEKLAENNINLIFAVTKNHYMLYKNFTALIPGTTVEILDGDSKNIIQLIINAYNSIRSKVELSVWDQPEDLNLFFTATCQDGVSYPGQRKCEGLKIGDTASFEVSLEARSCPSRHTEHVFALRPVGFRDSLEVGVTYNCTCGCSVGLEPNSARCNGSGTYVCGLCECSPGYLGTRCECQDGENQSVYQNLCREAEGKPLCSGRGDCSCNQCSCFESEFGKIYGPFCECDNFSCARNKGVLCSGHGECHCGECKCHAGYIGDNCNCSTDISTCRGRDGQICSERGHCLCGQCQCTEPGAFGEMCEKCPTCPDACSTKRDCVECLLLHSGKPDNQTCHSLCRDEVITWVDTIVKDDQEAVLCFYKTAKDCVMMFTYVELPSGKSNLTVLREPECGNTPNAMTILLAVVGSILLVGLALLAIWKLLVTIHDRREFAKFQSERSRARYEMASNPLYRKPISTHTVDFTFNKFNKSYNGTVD
Method: as §1, with “PIP++ and PIP—GaINAc++ indicate the conditions where cells were washed on day 4 and replaced with fresh medium containing 200 nM PIP or PIP—GaINAc. Panel F: Live HEPG2 imaging by IncuCyte throughout the 5 d after treatment with 100 nM PIP or PIP—GaINAc. Images are representative of three independent experiments for F. Data in B-E represent three independent experiments, where B and C show the mean of three independent experiments ±s.e.m.” left out
(§2) The surface levels of integrins were measured by flow cytometry following treatment in HEPG2 cells. […] Nonetheless, the total surface level of integrins that bind to PIP was determined by utilizing a PIP-Fc fusion for staining of the Fc fragment. […]

[1] = test system: integrins that bind to PIP; assay: Total surface level of integrins that bind to PIP, PIP-Fc fusion detection, HEPG2 cells; assay type: cell-based; settings: 44 h, 100 nM, flow cytometry
Method: as §1, with “PIP++ and PIP—GaINAc++ indicate the conditions where cells were washed on day 4 and replaced with fresh medium containing 200 nM PIP or PIP—GaINAc. Panel F: Live HEPG2 imaging by IncuCyte throughout the 5 d after treatment with 100 nM PIP or PIP—GaINAc. Images are representative of three independent experiments for F. Data in B-E represent three independent experiments, where B and C show the mean of three independent experiments ±s.e.m.” left out
as §2

[2] = test system: tumor-associated integrins; settings: αvβ3, αvβ5, αvβ6 and α5β1 integrins; cited from earlier work
[3] = test system: cation independent M6PR (CIM6PR); settings: compared to mannose-6-phosphate glycans; cited from earlier work
[4] = compared to mannose-6-phosphate glycans; cited from earlier work
[5] = target: integrins that bind to PIP (total surface level on HEPG2 cells); assay: cell-based or functional assay
[6] = target: αvβ3 integrin on HEPG2 cells (UniProt P06756); assay: cell-based or functional assay
αvβ3 integrin on HEPG2 cells, sequence (P06756 31-1048 limits assumed, chain 1 of 2): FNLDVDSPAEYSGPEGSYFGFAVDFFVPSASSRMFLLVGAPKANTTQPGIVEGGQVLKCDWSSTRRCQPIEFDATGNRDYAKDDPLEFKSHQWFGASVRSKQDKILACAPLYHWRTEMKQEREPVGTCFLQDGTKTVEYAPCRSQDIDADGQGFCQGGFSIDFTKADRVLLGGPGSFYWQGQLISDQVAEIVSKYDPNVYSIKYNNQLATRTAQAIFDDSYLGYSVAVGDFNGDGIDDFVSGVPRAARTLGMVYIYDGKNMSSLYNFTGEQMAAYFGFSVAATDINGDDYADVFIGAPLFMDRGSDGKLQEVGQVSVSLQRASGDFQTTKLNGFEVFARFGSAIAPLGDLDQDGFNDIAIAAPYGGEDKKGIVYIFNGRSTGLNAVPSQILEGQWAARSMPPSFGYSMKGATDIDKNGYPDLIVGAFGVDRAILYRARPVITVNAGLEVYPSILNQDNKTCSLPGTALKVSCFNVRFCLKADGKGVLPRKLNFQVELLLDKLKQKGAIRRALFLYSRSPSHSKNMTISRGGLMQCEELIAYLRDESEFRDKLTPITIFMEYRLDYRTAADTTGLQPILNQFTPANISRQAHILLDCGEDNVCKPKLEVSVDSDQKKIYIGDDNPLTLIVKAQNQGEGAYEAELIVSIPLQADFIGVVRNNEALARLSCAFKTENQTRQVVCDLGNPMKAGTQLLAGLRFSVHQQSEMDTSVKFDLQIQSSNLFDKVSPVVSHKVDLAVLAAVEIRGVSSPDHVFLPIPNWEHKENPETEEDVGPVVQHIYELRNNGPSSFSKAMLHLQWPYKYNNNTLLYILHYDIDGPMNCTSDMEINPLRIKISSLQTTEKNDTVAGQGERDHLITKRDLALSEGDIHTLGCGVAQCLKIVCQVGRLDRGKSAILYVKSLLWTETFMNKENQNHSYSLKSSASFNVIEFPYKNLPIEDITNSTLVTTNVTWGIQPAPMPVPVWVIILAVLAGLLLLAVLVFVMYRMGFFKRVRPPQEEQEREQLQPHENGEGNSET
αvβ3 integrin on HEPG2 cells, sequence (P05106 27-788 limits assumed, chain 2 of 2, further chain): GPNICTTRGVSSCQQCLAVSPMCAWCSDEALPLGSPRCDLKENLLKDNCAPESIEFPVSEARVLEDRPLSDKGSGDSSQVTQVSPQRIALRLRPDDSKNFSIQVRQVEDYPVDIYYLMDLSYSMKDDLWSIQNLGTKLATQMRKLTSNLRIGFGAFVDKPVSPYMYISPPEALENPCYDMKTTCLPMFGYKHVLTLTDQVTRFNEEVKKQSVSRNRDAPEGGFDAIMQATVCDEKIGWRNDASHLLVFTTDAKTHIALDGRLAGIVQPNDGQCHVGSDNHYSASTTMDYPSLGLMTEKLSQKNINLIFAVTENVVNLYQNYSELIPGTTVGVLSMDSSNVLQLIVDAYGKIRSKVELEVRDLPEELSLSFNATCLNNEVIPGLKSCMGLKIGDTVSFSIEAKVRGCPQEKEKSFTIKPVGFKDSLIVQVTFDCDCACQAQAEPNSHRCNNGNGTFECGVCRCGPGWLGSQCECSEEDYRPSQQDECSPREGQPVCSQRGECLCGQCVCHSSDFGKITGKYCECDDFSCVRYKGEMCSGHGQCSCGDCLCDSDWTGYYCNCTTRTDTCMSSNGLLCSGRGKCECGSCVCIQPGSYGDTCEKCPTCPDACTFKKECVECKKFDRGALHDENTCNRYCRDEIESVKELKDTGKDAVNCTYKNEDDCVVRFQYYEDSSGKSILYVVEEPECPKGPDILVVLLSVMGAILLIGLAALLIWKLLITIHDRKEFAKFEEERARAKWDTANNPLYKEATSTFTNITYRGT

αvβ3 integrin = target: T2, αvβ3 integrin (Homo sapiens, UniProt P05106+P06756); assay: Cell surface integrin levels by live-cell flow cytometry in HEPG2 cells, anti-αvβ3 detection; assay type: cell-based; settings: 44 h, 100 nM
T2 construct: endogenous in cells; host or cells: HEPG2
T2 sequence (P06756 31-889 limits assumed): as the sequence (P06756 31-889 limits assumed) above
T2 sequence (P06756 891-1048 partner limits assumed): as the sequence (P06756 891-1048 partner limits assumed) above
T2 sequence (P05106 27-788): as the sequence (P05106 27-788 limits assumed, chain 2 of 2, further chain) above
Method: as §1, with “PIP++ and PIP—GaINAc++ indicate the conditions where cells were washed on day 4 and replaced with fresh medium containing 200 nM PIP or PIP—GaINAc. Panel F: Live HEPG2 imaging by IncuCyte throughout the 5 d after treatment with 100 nM PIP or PIP—GaINAc. Images are representative of three independent experiments for F. Data in B-E represent three independent experiments, where B and C show the mean of three independent experiments ±s.e.m.” left out
as §2

Row | Compound | cell morphology (HEPG2 cells) | antiproliferative phenotype after wash-out (HEPG2 cells) | effect on surface expression of integrin αvβ5 (integrin αvβ5) | integrins depleted (detection of PIP-Fc) [1] | relative binding affinity for the CIM6PR [3] | depletion of total surface integrins that bind to PIP on HEPG2 cells, detected by PIP-Fc staining (flow cytometry) [5] | further results
1 | PIP: polyspecific integrin-binding knottin peptide, 33-mer (SEQ ID NO:42); 5-azido-L-norvaline at position 15, tyrosine at position 31 (GCPRPRGDNPPLTC[Orn(N3)]QDSDCLAGCVCGPNGYCG; disulfide (positions not given here); not fully specified (bridges); also: further groups not given here) | epithelial-like clusters | wash-out rescued proliferation | increased the expression | 40% |  |  | binding affinity to tumor-associated integrins [2]: high affinity
2 | C=CC(=O)OC[C@@H](O)[C@@H](O)[C@H](O)[C@H](O)C=O [mannose-6-acrylate glycans, mannose-6-acrylate] |  |  |  |  | 0.7 |  | serum stability [4]: better serum stability
3 | PIP-GalNAc (PIP conjugated to a single tri-GalNAc-DBCO moiety) (peptide) |  |  |  |  |  | 60% | cell surface αvβ3 integrin level on HEPG2 cells, live-cell flow cytometry after 44 h of treatment with 100 nM [6]: 3 fold
4 | mannose-6-carboxylate [mannose-6-carboxylate glycans] |  |  |  |  | 0.3 |  | 
5 | PIP—GaINAc: PIP knottin with azido-norvaline site-specifically conjugated via a single tri-GaINAc-DBCO moiety (GCPRPRGDNPPLTC[Orn(N3)′](tri‑GalNAc‑DBCO)QDSDCLAGCVCGPNGYCG; disulfide (positions not given here); not fully specified (bridges); reading uncertain; also: further groups not given here) | formed smaller, circular clusters | persisted after conjugate wash-out | modest degradation | about 60% |  |  | depletion of cell surface αvβ3 integrin levels relative to PIP treatment alone (αvβ3 integrin): threefold; antiproliferative effect on co-incubation with asialofetuin (ASF), inhibitor of ASGPR (HEPG2 cells; 10 mg ml^−1 ASF): ablated the enhanced antiproliferative effect; inhibition of proliferation (HEPG2 cells; various concentrations (50, 100, 200 nM) and durations of treatment up to 44 h): substantially more effective at inhibiting proliferation than PIP
6 | polyspecific integrin-binding knottin peptide (PIP), synthesized with 5-azido-L-norvaline at position 15 and tyrosine at position 31 |  |  |  |  |  | 40% | 

From patent US20230211001A1, “Lysosomal Targeting Molecules Comprising Knottin Peptides And Related Compositions And Methods” (The Board of Trustees of the Leland Stanford Junior …, priority 2020, published 2023)
